# Numbers after ± are expanded uncertainties.
# Details: 283.15 K, Liquid, Vibrating tube method
compound,measurement,setting,value
CCCCCC(=O)OCC(COC(=O)CCCCC)(COC(=O)CCCCC)COC(=O)CCCCC [pentaerythritol tetrahexanoate],mass density,7124.1 kPa,1008.3 ± 1.2 kg/m3
same,mass density,7135 kPa,1008.3 ± 1.2 kg/m3
same,mass density,7146.2 kPa,1008.3 ± 1.2 kg/m3
same,mass density,7159.7 kPa,1008.3 ± 1.2 kg/m3
same,mass density,7170.9 kPa,1008.3 ± 1.2 kg/m3
same,mass density,7182 kPa,1008.3 ± 1.2 kg/m3
same,mass density,7193.4 kPa,1008.3 ± 1.2 kg/m3
same,mass density,7206.5 kPa,1008.3 ± 1.2 kg/m3
same,mass density,7217.2 kPa,1008.4 ± 1.2 kg/m3
same,mass density,7228.4 kPa,1008.3 ± 1.2 kg/m3
same,mass density,7241.6 kPa,1008.4 ± 1.2 kg/m3
same,mass density,7252.8 kPa,1008.4 ± 1.2 kg/m3
same,mass density,7264.2 kPa,1008.4 ± 1.2 kg/m3
same,mass density,7277.8 kPa,1008.3 ± 1.2 kg/m3
same,mass density,7289 kPa,1008.4 ± 1.2 kg/m3
same,mass density,7300.4 kPa,1008.3 ± 1.2 kg/m3
same,mass density,7311.8 kPa,1008.3 ± 1.2 kg/m3
same,mass density,7323.4 kPa,1008.3 ± 1.2 kg/m3
same,mass density,7336.9 kPa,1008.4 ± 1.2 kg/m3
same,mass density,7348.4 kPa,1008.4 ± 1.2 kg/m3
same,mass density,7360.2 kPa,1008.3 ± 1.2 kg/m3
same,mass density,7373.8 kPa,1008.5 ± 1.2 kg/m3
same,mass density,7385.4 kPa,1008.3 ± 1.2 kg/m3
same,mass density,7396.9 kPa,1008.4 ± 1.2 kg/m3
same,mass density,7408.7 kPa,1008.5 ± 1.2 kg/m3
same,mass density,7422.7 kPa,1008.5 ± 1.2 kg/m3
same,mass density,7434.6 kPa,1008.5 ± 1.2 kg/m3
same,mass density,7446.5 kPa,1008.5 ± 1.2 kg/m3
same,mass density,7458.6 kPa,1008.5 ± 1.2 kg/m3
same,mass density,7472.7 kPa,1008.5 ± 1.2 kg/m3
same,mass density,7484.8 kPa,1008.6 ± 1.2 kg/m3
same,mass density,7496.7 kPa,1008.4 ± 1.2 kg/m3
same,mass density,7508.6 kPa,1008.6 ± 1.2 kg/m3
same,mass density,7523.2 kPa,1008.5 ± 1.2 kg/m3
same,mass density,7534.9 kPa,1008.5 ± 1.2 kg/m3
same,mass density,7547.3 kPa,1008.6 ± 1.2 kg/m3
same,mass density,7561.6 kPa,1008.5 ± 1.2 kg/m3
same,mass density,7573.6 kPa,1008.5 ± 1.2 kg/m3
same,mass density,7586 kPa,1008.5 ± 1.2 kg/m3
same,mass density,7598.2 kPa,1008.6 ± 1.2 kg/m3
same,mass density,7613.2 kPa,1008.4 ± 1.2 kg/m3
same,mass density,7625.9 kPa,1008.6 ± 1.2 kg/m3
same,mass density,7637.9 kPa,1008.6 ± 1.2 kg/m3
same,mass density,7650.7 kPa,1008.5 ± 1.2 kg/m3
same,mass density,7665 kPa,1008.6 ± 1.2 kg/m3
same,mass density,7678 kPa,1008.5 ± 1.2 kg/m3
same,mass density,7690.4 kPa,1008.6 ± 1.2 kg/m3
same,mass density,7705.3 kPa,1008.7 ± 1.2 kg/m3
same,mass density,7717.7 kPa,1008.6 ± 1.2 kg/m3
same,mass density,7730.5 kPa,1008.7 ± 1.2 kg/m3
same,mass density,7742.7 kPa,1008.6 ± 1.2 kg/m3
same,mass density,7758.4 kPa,1008.7 ± 1.2 kg/m3
same,mass density,7771.4 kPa,1008.7 ± 1.2 kg/m3
same,mass density,7784.3 kPa,1008.7 ± 1.2 kg/m3
same,mass density,7798.4 kPa,1008.5 ± 1.2 kg/m3
same,mass density,7811.2 kPa,1008.7 ± 1.2 kg/m3
same,mass density,7826.7 kPa,1008.7 ± 1.2 kg/m3
same,mass density,7839.6 kPa,1008.8 ± 1.2 kg/m3
same,mass density,7852.8 kPa,1008.8 ± 1.2 kg/m3
same,mass density,7866 kPa,1008.8 ± 1.2 kg/m3
same,mass density,7881.9 kPa,1008.7 ± 1.2 kg/m3
same,mass density,7895 kPa,1008.7 ± 1.2 kg/m3
same,mass density,7908.3 kPa,1008.7 ± 1.2 kg/m3
same,mass density,7924.2 kPa,1008.7 ± 1.2 kg/m3
same,mass density,7937.3 kPa,1008.7 ± 1.2 kg/m3
same,mass density,7950.8 kPa,1008.6 ± 1.2 kg/m3
same,mass density,7967.7 kPa,1008.7 ± 1.2 kg/m3
same,mass density,7978.6 kPa,1008.7 ± 1.2 kg/m3
same,mass density,7994.5 kPa,1008.8 ± 1.2 kg/m3
same,mass density,8008.3 kPa,1008.8 ± 1.2 kg/m3
same,mass density,8022.4 kPa,1008.7 ± 1.2 kg/m3
same,mass density,8036.2 kPa,1008.9 ± 1.2 kg/m3
same,mass density,8052.3 kPa,1008.8 ± 1.2 kg/m3
same,mass density,8065.9 kPa,1008.8 ± 1.2 kg/m3
same,mass density,8080.1 kPa,1008.9 ± 1.2 kg/m3
same,mass density,8094.4 kPa,1008.8 ± 1.2 kg/m3
same,mass density,8110.8 kPa,1008.9 ± 1.2 kg/m3
same,mass density,8125.1 kPa,1008.8 ± 1.2 kg/m3
same,mass density,8139.2 kPa,1008.8 ± 1.2 kg/m3
same,mass density,8153.4 kPa,1008.9 ± 1.2 kg/m3
same,mass density,8167.7 kPa,1008.8 ± 1.2 kg/m3
same,mass density,8184.9 kPa,1008.9 ± 1.2 kg/m3
same,mass density,8199.1 kPa,1008.8 ± 1.2 kg/m3
same,mass density,8213.4 kPa,1008.9 ± 1.2 kg/m3
same,mass density,8230.8 kPa,1008.9 ± 1.2 kg/m3
same,mass density,8245.5 kPa,1008.9 ± 1.2 kg/m3
same,mass density,8259.8 kPa,1008.8 ± 1.2 kg/m3
same,mass density,8274.5 kPa,1009 ± 1.2 kg/m3
same,mass density,8291.9 kPa,1008.9 ± 1.2 kg/m3
same,mass density,8306.6 kPa,1009 ± 1.2 kg/m3
same,mass density,8320.7 kPa,1009 ± 1.2 kg/m3
same,mass density,8335.5 kPa,1009.1 ± 1.2 kg/m3
same,mass density,8385.6 kPa,1009 ± 1.2 kg/m3
same,mass density,8400.7 kPa,1009 ± 1.2 kg/m3
same,mass density,8415.4 kPa,1009.1 ± 1.2 kg/m3
same,mass density,8430.1 kPa,1009 ± 1.2 kg/m3
same,mass density,8447.5 kPa,1009 ± 1.2 kg/m3
same,mass density,8463 kPa,1009 ± 1.2 kg/m3
same,mass density,8478 kPa,1009.1 ± 1.2 kg/m3
same,mass density,8496.3 kPa,1009.1 ± 1.2 kg/m3
same,mass density,8511.3 kPa,1009 ± 1.2 kg/m3
same,mass density,8529.1 kPa,1009.1 ± 1.2 kg/m3
same,mass density,8544.6 kPa,1009.1 ± 1.2 kg/m3
same,mass density,8560.6 kPa,1009.1 ± 1.2 kg/m3
same,mass density,8576.2 kPa,1009.1 ± 1.2 kg/m3
same,mass density,8594.8 kPa,1009.1 ± 1.2 kg/m3
same,mass density,8609.8 kPa,1009.2 ± 1.2 kg/m3
same,mass density,8625.5 kPa,1009.1 ± 1.2 kg/m3
same,mass density,8644.3 kPa,1009.3 ± 1.2 kg/m3
same,mass density,8659.6 kPa,1009.2 ± 1.2 kg/m3
same,mass density,8678.4 kPa,1009.2 ± 1.2 kg/m3
same,mass density,8694.4 kPa,1009.1 ± 1.2 kg/m3
same,mass density,8710.5 kPa,1009.1 ± 1.2 kg/m3
same,mass density,8729.5 kPa,1009.2 ± 1.2 kg/m3
same,mass density,8745.1 kPa,1009.1 ± 1.2 kg/m3
same,mass density,8761.5 kPa,1009.1 ± 1.2 kg/m3
same,mass density,8778.1 kPa,1009.3 ± 1.2 kg/m3
same,mass density,8797.7 kPa,1009.2 ± 1.2 kg/m3
same,mass density,8813.6 kPa,1009.3 ± 1.2 kg/m3
same,mass density,8833.4 kPa,1009.1 ± 1.2 kg/m3
same,mass density,8849.8 kPa,1009.3 ± 1.2 kg/m3
same,mass density,8865.8 kPa,1009.3 ± 1.2 kg/m3
same,mass density,8882.4 kPa,1009.2 ± 1.2 kg/m3
same,mass density,8902.4 kPa,1009.2 ± 1.2 kg/m3
same,mass density,8919.1 kPa,1009.3 ± 1.2 kg/m3
same,mass density,8935.3 kPa,1009.3 ± 1.2 kg/m3
same,mass density,8955.5 kPa,1009.4 ± 1.2 kg/m3
same,mass density,8972.2 kPa,1009.2 ± 1.2 kg/m3
same,mass density,8992.6 kPa,1009.4 ± 1.2 kg/m3
same,mass density,9009.6 kPa,1009.3 ± 1.2 kg/m3
same,mass density,9026.7 kPa,1009.4 ± 1.2 kg/m3
same,mass density,9043.4 kPa,1009.5 ± 1.2 kg/m3
same,mass density,9063.8 kPa,1009.4 ± 1.2 kg/m3
same,mass density,9081 kPa,1009.3 ± 1.2 kg/m3
same,mass density,9098.4 kPa,1009.5 ± 1.2 kg/m3
same,mass density,9118.9 kPa,1009.4 ± 1.2 kg/m3
same,mass density,9136.1 kPa,1009.4 ± 1.2 kg/m3
same,mass density,9156.6 kPa,1009.4 ± 1.2 kg/m3
same,mass density,9173.7 kPa,1009.4 ± 1.2 kg/m3
same,mass density,9191.1 kPa,1009.5 ± 1.2 kg/m3
same,mass density,9212.2 kPa,1009.5 ± 1.2 kg/m3
same,mass density,9230.4 kPa,1009.5 ± 1.2 kg/m3
same,mass density,9249.2 kPa,1009.5 ± 1.2 kg/m3
same,mass density,9266.9 kPa,1009.5 ± 1.2 kg/m3

# Source: the NIST ThermoML archive (doi:10.1021/je060271a)
